Source: patent US6395541B1, “Methods for the identification of compounds capable of inhibiting HIV-1 viral replication employing murine cell lines expressing human topoisomerase I” (The Rockefeller University, priority 1996, dated 2002)

Key:
HIV-1 [1] = details: cited from earlier work
HIV-1 [2] = details: AIDS patients; cited from earlier work
topo I [3] = biological target: T1, topo I (Homo sapiens, UniProt P11387); experiment: Reverse transcriptase assay, linear cDNA synthesis from 5'/3' HIV-1 RNA template in presence of topo I; assay type: biochemical; details: HIV-1 RT with topo I 0.16 unit; CPT 400, 40, 4 and 0 μM; concentration dependent
T1 sequence (P11387 1-765): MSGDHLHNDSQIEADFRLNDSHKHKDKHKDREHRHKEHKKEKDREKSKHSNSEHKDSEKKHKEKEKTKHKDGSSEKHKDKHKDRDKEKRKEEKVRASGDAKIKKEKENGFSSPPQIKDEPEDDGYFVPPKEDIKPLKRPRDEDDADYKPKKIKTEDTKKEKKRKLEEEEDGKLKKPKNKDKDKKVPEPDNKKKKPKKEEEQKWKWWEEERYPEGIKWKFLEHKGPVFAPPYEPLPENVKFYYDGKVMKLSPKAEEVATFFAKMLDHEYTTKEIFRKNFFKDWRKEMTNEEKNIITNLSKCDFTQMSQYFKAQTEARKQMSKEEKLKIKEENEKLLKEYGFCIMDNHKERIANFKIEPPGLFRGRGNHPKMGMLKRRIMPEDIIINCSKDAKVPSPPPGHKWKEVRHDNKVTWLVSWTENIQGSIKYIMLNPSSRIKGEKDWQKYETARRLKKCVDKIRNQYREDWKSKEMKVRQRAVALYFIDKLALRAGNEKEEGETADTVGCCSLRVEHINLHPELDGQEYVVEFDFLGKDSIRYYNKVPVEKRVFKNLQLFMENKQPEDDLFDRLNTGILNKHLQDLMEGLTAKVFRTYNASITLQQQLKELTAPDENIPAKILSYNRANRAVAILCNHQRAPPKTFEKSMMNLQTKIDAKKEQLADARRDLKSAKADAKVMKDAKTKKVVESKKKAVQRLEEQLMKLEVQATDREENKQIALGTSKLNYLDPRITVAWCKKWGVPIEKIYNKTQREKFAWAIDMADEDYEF
Text: Influence of cellular topo I on HIV-1 RT activity. […] An end-labeled primer (*) was employed to initiate cDNA synthesis and would be expected to result in a product of 1481 nucleotides (nt). […] Phosphorescence image analysis of cDNA products following agarose gel electrophoresis. The presence or absence of topo I is indicated by + and −, respectively. Similarly the presence or absence of CPT is indicated by + and −.
To analyze the influence of topo I on linear cDNA synthesis, the template containing both the 5′ and 3′ ends of HIV-1 RNA was used. cDNA synthesis expected to result in a product of 1481 nucleotides was initiated using a nef gene primer end-labeled with [θ-^32P]ATP (5′-[sequence]-3′; nucleotides 9002-9027). Reaction mixtures obtained 300 ng of RNA template in 50 μl of 50 Mm TrisHCL (pH 8.0) containing 150 Mm KCl, 5 Mm MgCl^2, 5 Mm dithiothreitol, 0.5 Mm EGTA, 0.4 unit of RNasin (Promega), 0.1 unit of HIV-1 RT (Seikagaku, Kogyo, Tokyo), 100 ng of primer, 250 μM dNTPs, bovine serum albumin at 0.1 mg/ml, GST-P15 at 0.8 μg/ml 10 μl of glutathione beads (50% vol/vol; Pharmacia), and topo I at final concentrations of 0.16, 0.032 and 0.0064 unit. Samples were incubated at 37° C. for 25 min. […] Gels were dried onto nylon membranes and analyzed with a Fuji BAS2000 phosphorescence imager.

topo I [4] = biological target: T1, topo I; experiment: Reverse transcriptase assay, ssDNA synthesis and strand transfer in presence of topo I; assay type: biochemical; details: topo I 0.16 unit per 50 μl; CPT 400, 40 and 4 μM; concentration-dependent
Text: Analysis of ssDNA synthesis and strand transfer. […] Schematic representation of two RNA templates employed. […] The 3′RNA represents the 3′end of the HIV-1 RNA and contains the R region and the poly(A) tail. ssDNA synthesis was initiated by an end labeled primer (*) corresponding to the primer binding site (PBS) in the 5′RNA. After strand transfer to the 3′RNA, this would be expected to result in a cDNA product of 867 nucleotides. […] Phosphorescence image analysis of the cDNA product after agarose gel electrophoresis. The presence and absence of 5′RNA and 3′RNA templates are indicated by + and −, respectively. The effects of CPT at concentrations of 400, 40 and 4 μM are indicated by +. Topo I was used at the final concentration of 0.16 unit per 50 μl in all experiments.
Reaction mixtures obtained 300 ng of RNA template in 50 μl of 50 Mm TrisHCL (pH 8.0) containing 150 Mm KCl, 5 Mm MgCl^2, 5 Mm dithiothreitol, 0.5 Mm EGTA, 0.4 unit of RNasin (Promega), 0.1 unit of HIV-1 RT (Seikagaku, Kogyo, Tokyo), 100 ng of primer, 250 μM dNTPs, bovine serum albumin at 0.1 mg/ml, GST-P15 at 0.8 μg/ml 10 μl of glutathione beads (50% vol/vol; Pharmacia), and topo I at final concentrations of 0.16, 0.032 and 0.0064 unit. Samples were incubated at 37° C. for 25 min. […] Gels were dried onto nylon membranes and analyzed with a Fuji BAS2000 phosphorescence imager. […] Reaction products were analyzed as above.

HIV-1 IIIB strain = experiment: Southern hybridization of DNA from HIV-1 infected MT2 cells with drug treatment; assay type: cell-based; details: HIV-1 IIIB 0.1 m.o.i., 72 hrs, drugs 0.01-10 μg/ml
Protocol: FIG. 5. Southern hybridization of DNA from HIV-1 infected cells with drug treatment. […] cells, MT2, infected with the HIV-1 IIIB strain were treated with AZT, CPT or TAN at concentrations (from right to left) AZT 0.01, 0.1, 1.0, 10 μg/ml, CPT 0.01, 0.1, 1.0 μg/ml, TAN 0.01, 0.1, 1.0 μg/ml respectively.
MT2 cells were incubated for 2 hours with HIV-1 IIIB strain (Ratner et al., 1985 Nature 313: 277-284) at 0.1 m.o.i. with drugs. Concentrations ranged from no drugs 0,0, AZT 0.01, 0.1, 1, 10 μg/mi, CPT 0.01, 0. 1, 1 μg/ml TAN 0.01, 0. 1, 1 μg/ml, CPT 0.1, 1, 10 μg/ml, TAN 0.1, 1, 10 μg/mi respectively (FIG. 5). After washing with PBS 3 times, cells were incubated again for 72 hrs with or without concentration of drugs as indicated, then lysed with 1% SDS, 10 Mm Tris HCl (pH 8.0), 5 Mm EDTA, 1M NaCl(Hirt's method. Following overnight incubation at 4 C., large molecule of DNA were precipitated by centrifugation. Supernatants were treated with 100 μg/ml of protease K at 56° C. for 2 hrs and after treated with phenol-chloroform, small molecules of DNA were precipitated and subjected to southern hybridization. Transferred nylon membrane (Schleicher & Schuell) were probed with (α-^32P) dCTP-random-primed-labeled primer.

| Compound | antiviral activity in vitro (HIV-1 [1]) | CD4 lymphocyte counts (HIV-1 [2]) | plasma HIV-1 levels (HIV-1 [2]) | cDNA synthesis (1481 nucleotide product) (topo I [3]) | cDNA product of 867 nucleotides (ssDNA synthesis and strand transfer) (topo I [4]) | HIV-replication in HIV-infected cells, Southern blot analysis (HIV-1 IIIB strain) |
| --- | --- | --- | --- | --- | --- | --- |
| CC(C)c1nc(CN(C)C(=O)N[C@H](C(=O)N[C@@H](Cc2ccccc2)C[C@H](O)[C@H](Cc2ccccc2)NC(=O)OCc2cncs2)C(C)C)cs1 [ABT-538] | potent antiviral activity | rise substantially | decrease exponentially |  |  |  |
| CC[C@@]1(O)C(=O)OCc2c1cc1n(c2=O)Cc2cc3ccccc3nc2-1 [CPT, camptothecin] |  |  |  | inhibited | inhibited | reduced HIV-replication |
